Results: PubChem BioAssay AID278 (DTP/NCI, 2004)
Where “and” joins values, the source holds several entries; their conditions need not be identical. Identical values can stand only once. Inconclusive results are not listed.

Test system: nude mice, A549 intrarenal xenograft, tumor weight change
Assay: NCI In Vivo Anticancer Drug Screen. Data for tumor model A549 Human Adenocarcinoma of Lung with characteristics of Type II Alveolar Epithelial cells (intrarenal inoculation) in NU/NU BALB/C (nude) mice
Conditions: endpoint: mean tumor weight change, higher = larger tumour
Outline: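 Activity is expressed as T/C: the treated-group value over the vehicle-treated control value. The measure was survival or tumor size in mice carrying transplantable tumors.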

[1] = dose: 100.0 mg/kg/injection, schedule: Q04DX003 (ip), vehicle: saline with Tween-80
[2] = dose: 200.0 mg/kg/injection, schedule: Q04DX003 (ip), vehicle: saline with Tween-80
[3] = dose: 150.0 mg/kg/injection, schedule: Q04DX003 (ip), vehicle: saline
[4] = dose: 300.0 mg/kg/injection, schedule: Q04DX003 (ip), vehicle: saline
[5] = dose: 600.0 mg/kg/injection, schedule: Q04DX003 (ip), vehicle: saline
[6] = dose: 150.0 mg/kg/injection, schedule: Q04DX003 (ip), vehicle: Klucel (hydroxypropylcellulose) (HPC)
[7] = dose: 75.0 mg/kg/injection, schedule: Q04DX003 (ip), vehicle: DMSO
[8] = dose: 300.0 mg/kg/injection, schedule: Q04DX003 (ip), vehicle: DMSO
[9] = dose: 25.0 mg/kg/injection, schedule: Q04DX003 (ip), vehicle: saline with Tween-80
[10] = dose: 50.0 mg/kg/injection, schedule: Q04DX003 (ip), vehicle: saline with Tween-80
[11] = dose: 150.0 mg/kg/injection, schedule: Q04DX003 (ip), vehicle: suspension in saline
[12] = dose: 300.0 mg/kg/injection, schedule: Q04DX003 (ip), vehicle: suspension in saline
[13] = dose: 600.0 mg/kg/injection, schedule: Q04DX003 (ip), vehicle: suspension in saline

Compound: COc1cc2c(c(OC)c1O)-c1ccc(OC)c(=O)cc1[C@@H](NC(=O)C(F)(F)F)CC2
- T/C (dose: 5.0 mg/kg/injection, schedule: Q04DX003 (ip), vehicle: Klucel (hydroxypropylcellulose) (HPC)): 7 % of control
- T/C (dose: 7.2 mg/kg/injection, schedule: Q04DX003 (ip), vehicle: Klucel (hydroxypropylcellulose) (HPC)): 116 % of control
- T/C (dose: 10.0 mg/kg/injection, schedule: Q04DX003 (ip), vehicle: Klucel (hydroxypropylcellulose) (HPC)): 48 % of control
- T/C (dose: 12.0 mg/kg/injection, schedule: Q04DX003 (ip), vehicle: Klucel (hydroxypropylcellulose) (HPC)): 90 % of control

Compound: Nc1ccc2ccc(N)cc2c1
- T/C [1]: 87 % of control
- T/C [2]: 111 % of control
- T/C (dose: 400.0 mg/kg/injection, schedule: Q04DX003 (ip), vehicle: saline with Tween-80): 55 % of control

Compound: CC1(C)Nc2cc3c(cc2-n2cccc21)oc1ccccc13
- T/C [3]: 77 % of control
- T/C [4]: 98 % of control
- T/C [5]: 66 % of control
- T/C (dose: 1200.0 mg/kg/injection, schedule: Q04DX003 (ip), vehicle: saline): 57 % of control

Compound: CCOC1NC(=O)Oc2ccccc21 (stereo not given)
- T/C [6]: 43 % of control
- T/C (dose: 600.0 mg/kg/injection, schedule: Q04DX003 (ip), vehicle: Klucel (hydroxypropylcellulose) (HPC)): 54 % of control

Compound: Cn1c(=S)sc2nc3ccccc3n2c1=S
- T/C (dose: 30.0 mg/kg/injection, schedule: Q04DX003 (ip), vehicle: saline with Tween-80): 83 % of control
- T/C (dose: 60.0 mg/kg/injection, schedule: Q04DX003 (ip), vehicle: saline with Tween-80): 50 % of control
- T/C (dose: 120.0 mg/kg/injection, schedule: Q04DX003 (ip), vehicle: saline with Tween-80): 73 % of control

Compound: Cc1cc(O)c2c(c1O)C(=O)C13C(=C2O)C(=O)C2C(O)C1C1C(O)C3C(=O)C3=C(O)c4c(O)cc(C)c(O)c4C(=O)C321 (stereo not given)
- T/C (dose: 1.0 mg/kg/injection, schedule: Q04DX003 (ip), vehicle: saline with Tween-80): 172 % of control
- T/C (dose: 2.0 mg/kg/injection, schedule: Q04DX003 (ip), vehicle: saline with Tween-80): 112 % of control

Compound: CCCCNc1ccc2nnc(C)n2n1
- T/C [7]: 75 % of control
- T/C (dose: 150.0 mg/kg/injection, schedule: Q04DX003 (ip), vehicle: DMSO): 19 % of control
- T/C [8]: 65 % of control

Compound: Cn1c2ccccc2c2ccc3c(c21)C(=O)C=CC3=O
- T/C [9]: 61 % of control
- T/C [10]: 26 % of control
- T/C [1]: 38 % of control
- T/C [2]: 35 % of control

Compound: CC(=O)NCCSSCCCCS(=O)O
- T/C (dose: 75.0 mg/kg/injection, schedule: Q04DX003 (ip), vehicle: saline): 111 % of control
- T/C [3]: 60 % of control
- T/C [4]: 39 % of control
- T/C [5]: 70 % of control

Compound: CC(O)CCC(=O)c1ccoc1 (stereo not given)
- T/C (dose: 24.0 mg/kg/injection, schedule: Q04DX003 (ip), vehicle: saline): 186 % of control
- T/C (dose: 32.0 mg/kg/injection, schedule: Q04DX003 (ip), vehicle: saline): 82 % of control

Compound: COc1ccc(C(C)c2cc3c(cc2OC)OCO3)cc1 (stereo not given)
- T/C (dose: 12.5 mg/kg/injection, schedule: Q04DX003 (ip), vehicle: saline with Tween-80): 17 % of control
- T/C [9]: 18 % of control and 43 % of control
- T/C [10]: 33 % of control

Compound: CC(=O)C[n+]1ccc(C)cc1Sc1ccccc1C
- T/C [10]: 112 % of control
- T/C [1]: 44 % of control

Compound: O=c1[nH]cnc2c1nnn2C1OC(CO)C(O)C1O (stereo not given)
- T/C [11]: 83 % of control
- T/C [12]: 47 % of control
- T/C [13]: 32 % of control
- T/C (dose: 1200.0 mg/kg/injection, schedule: Q04DX003 (ip), vehicle: suspension in saline): 38 % of control

Compound: CN(C)C(=O)Nc1ccc(Cl)cc1
- T/C [11]: 120 % of control
- T/C [12]: 74 % of control
- T/C [13]: 112 % of control

Compound: Cc1ccc2c(c1)n([O-])c1cc(Cl)ccc1[n+]2=O
- T/C (dose: 35.0 mg/kg/injection, schedule: Q04DX003 (ip), vehicle: saline with Tween-80): 102 % of control
- T/C (dose: 70.0 mg/kg/injection, schedule: Q04DX003 (ip), vehicle: saline with Tween-80): 65 % of control
- T/C (dose: 140.0 mg/kg/injection, schedule: Q04DX003 (ip), vehicle: saline with Tween-80): 108 % of control
- T/C (dose: 280.0 mg/kg/injection, schedule: Q04DX003 (ip), vehicle: saline with Tween-80): 94 % of control

Compound: O=C1C=C(N2CC2)C(=O)C(N2CC2)=C1N1CC1
- T/C (dose: 100.0 micrograms/kg/injection, schedule: Q04DX003 (ip), vehicle: saline): 25 % of control and 29 % of control
- T/C (dose: 144.0 micrograms/kg/injection, schedule: Q04DX003 (ip), vehicle: saline + alcohol): -27 % of control
- T/C (dose: 240.0 micrograms/kg/injection, schedule: Q04DX003 (ip), vehicle: saline + alcohol): -14 % of control
- T/C (dose: 400.0 micrograms/kg/injection, schedule: Q04DX003 (ip), vehicle: saline): 6 % of control

Compound: C/C=C/CC(C)C(O)C1C(=O)NC(CC)C(=O)N(C)CC(=O)N(C)C(CC(C)C)C(=O)NC(C(C)C)C(=O)N(C)C(CC(C)C)C(=O)NC(C)C(=O)NC(C)C(=O)N(C)C(CC(C)C)C(=O)N(C)C(CC(C)C)C(=O)N(C)C(C(C)C)C(=O)N1C (stereo not given)
- T/C (dose: 75.0 mg/kg/injection, schedule: Q04DX003 (ip), vehicle: Klucel (hydroxypropylcellulose) (HPC)): 158 % of control
- T/C [6]: 65 % of control

Compound: c1ccc2[nH]c(CN(CCN(Cc3nc4ccccc4[nH]3)Cc3nc4ccccc4[nH]3)Cc3nc4ccccc4[nH]3)nc2c1
- T/C (dose: 6.25 mg/kg/injection, schedule: Q04DX003 (ip), vehicle: DMSO): 124 % of control
- T/C (dose: 12.5 mg/kg/injection, schedule: Q04DX003 (ip), vehicle: DMSO): 102 % of control
- T/C (dose: 25.0 mg/kg/injection, schedule: Q04DX003 (ip), vehicle: DMSO): 157 % of control

Compound: NC(=S)N/N=C/c1cc(=O)c2cc(Cl)ccc2o1
- T/C [7]: 66 % of control
- T/C (dose: 150.0 mg/kg/injection, schedule: Q04DX003 (ip), vehicle: other): 15 % of control
- T/C [8]: 152 % of control
- T/C (dose: 300.0 mg/kg/injection, schedule: Q04DX003 (ip), vehicle: other): 29 % of control
- T/C (dose: 600.0 mg/kg/injection, schedule: Q04DX003 (ip), vehicle: DMSO): 150 % of control
- T/C (dose: 600.0 mg/kg/injection, schedule: Q04DX003 (ip), vehicle: other): 36 % of control

Compound: CCCC1CCC(=C2C(=O)CCC2=O)O1 (stereo not given)
- T/C (dose: 37.5 mg/kg/injection, schedule: Q04DX003 (ip), vehicle: saline with Tween-80): 247 % of control
- T/C (dose: 75.0 mg/kg/injection, schedule: Q04DX003 (ip), vehicle: saline with Tween-80): 68 % of control
- T/C (dose: 150.0 mg/kg/injection, schedule: Q04DX003 (ip), vehicle: saline with Tween-80): 109 % of control
- T/C (dose: 300.0 mg/kg/injection, schedule: Q04DX003 (ip), vehicle: saline with Tween-80): 50 % of control

Compound: COc1cc2c(cc1OC)-c1c3c(cc4c1[C@@H](C2)N(C)CC4)OCO3
- T/C (dose: 37.5 mg/kg/injection, schedule: Q04DX003 (ip), vehicle: distilled water + Tween-80 + alcohol): 89 % of control
- T/C (dose: 75.0 mg/kg/injection, schedule: Q04DX003 (ip), vehicle: distilled water + Tween-80 + alcohol): 84 % of control
- T/C (dose: 150.0 mg/kg/injection, schedule: Q04DX003 (ip), vehicle: distilled water + Tween-80 + alcohol): 21 % of control

Compound: CO[C@H](/C(C)=C/C=C/C(C)=C/c1coc(C)n1)[C@H](C)[C@H]1C[C@@H](O)[C@@]2(C)O[C@H]2/C=C/[C@@H](C)[C@@H]2C[C@@H](CC(=O)O2)C[C@H]2O[C@@H]2C(=O)O1
- T/C (dose: 0.07 mg/kg/injection, schedule: Q04DX003 (ip), vehicle: other): 71 % of control
- T/C (dose: 0.12 mg/kg/injection, schedule: Q04DX003 (ip), vehicle: other): 54 % of control
- T/C (dose: 0.13 mg/kg/injection, schedule: Q01DX009 (ip), vehicle: Klucel (hydroxypropylcellulose) (HPC)): 54 % of control
- T/C (dose: 0.18 mg/kg/injection, schedule: Q04DX003 (ip), vehicle: Klucel (hydroxypropylcellulose) (HPC)): 57 % of control
- T/C (dose: 0.2 mg/kg/injection, schedule: Q01DX009 (ip), vehicle: Klucel (hydroxypropylcellulose) (HPC)): 15 % of control
- T/C (dose: 0.2 mg/kg/injection, schedule: Q04DX003 (ip), vehicle: other): 86 % of control
- T/C (dose: 0.3 mg/kg/injection, schedule: Q01DX009 (ip), vehicle: Klucel (hydroxypropylcellulose) (HPC)): 38 % of control
- T/C (dose: 0.3 mg/kg/injection, schedule: Q04DX003 (ip), vehicle: Klucel (hydroxypropylcellulose) (HPC)): 41 % of control
- T/C (dose: 0.33 mg/kg/injection, schedule: Q04DX003 (ip), vehicle: other): 21 % of control
- T/C (dose: 0.5 mg/kg/injection, schedule: Q04DX003 (ip), vehicle: Klucel (hydroxypropylcellulose) (HPC)): 26 % of control
- T/C (dose: 0.83 mg/kg/injection, schedule: Q04DX003 (ip), vehicle: Klucel (hydroxypropylcellulose) (HPC)): 21 % of control
